Data on six substances can be found in US20110191867A1.

Experiment [1] has as its system serum antibodies of test subjects.
Experiment [2] has the same test system. This is another data set of the same source.
The test system of experiment [3] is commercial polyclonal antibody from rabbit. Kind of experiment: ELISA control: commercial polyclonal antibody binding to peptide coated on a maleimide plate. An excerpt:
A commercial peptide […] (HA11-peptide), which has been used as a recognition tag on recombinant proteins was used as a control and for testing of analysis of binding between a free core peptide and human antibodies. Due to restricted availability of at least N-terminal sequence the peptide would not be very effective in immunization against the viral as therapy. This peptide is known to be antigenic in animals under immunization conditions and antibodies including polyclonals from rabbit, mice etc.
In general terms: An ELISA detects its analyte on a solid surface through an enzyme-linked reagent.

The subject of experiment [4] is natural human antibodies.
Experiment [5] deals with natural human antibodies. The experiment is classed as binding.

Read-outs that look alike come from different tables or passages of the source.

Consider “Biotin-aminocaproyl-CRPWVRGVC [Peptide 4B]”, for which the “antibody binding, cyclic peptide compared with corresponding linear peptide” value in experiment [1] (sera S1B-S8B, FIG. 8) is recorded as “bind generally more strongly antibodies than the corresponding linear peptide 3”.
Regarding “Biotin-aminocaproyl-CRPKVRDQC [Peptide 3B]”, the “reaction with serum of test subject” value in experiment [2] was “weaker reaction”. The serum antibody response result in experiment [1] (person S5B, vaccinated against influenza, FIG. 5) is reported as “unusually high response”.
On to “CYPYDVPDYA [HA11-N Cys, commercial peptide used as a recognition tag on recombinant proteins, used as a control]”, for which, in experiment [3], the “binding of commercial polyclonal antibody from rabbit to the peptide” value is “effective binding”.
As for “Biotin-aminocaproyl-CRPRVRNICG-NH4 [Peptide 1C]”, in experiment [2], the “comparison of the cyclic and linear peptide, reactivity with sera” value is listed as “more reactive with all subjects except S3B”; the “reaction with serum of test subject” value is on record as “weaker reaction”; the “reactivity with sera of test subjects” value is “Strong responses were observed from the serum of test subjects S5B an S7B”.
For the substance “Biotin-aminohexanoyl-SYACKR [Peptide P2-N]”, the “immune response of the 6 sera, order of reactivity” value with natural human antibodies [4] is “sera 2 and 5 showed strongest immune response before sera 3, 4 and 6, while serum 1 showed weakest reaction”; in the experiment on natural human antibodies [5], “reacted with sera similarily but reactions with serum 5 was weaker and the serum 6 showed the strongest reponse”.
For the substance “Biotin-aminohexanoyl-SKAYSNC [Peptide P1-N]”, the “immune response of the 6 sera, order of reactivity” value was “sera 3 and 4 showed strongest immune response before serum 2, while sera 1, 5 and 6 were weakly or non-reactive” with natural human antibodies [4]; “reacted with sera in the order from strongest to weaker: 6, 3, 4, and 2, while 1 and 5 were weakly or non-reactive” with natural human antibodies [5].
